Assay results as given in patent publication US20090253667A1, “18 ,21-Didesoxymacbecin Derivatives for the Treatment of Cancer” (priority 2006, published 2009).

Legend:
Yeast Hsp90 = Yeast Hsp90 (Saccharomyces cerevisiae, UniProt P02829); assay: Isothermal titration calorimetry, Kd for Hsp90 binding; settings: ITC at 30° C., 0.008 mM yeast Hsp90, 2% DMSO
Procedure: Yeast Hsp90 was dialysed against 20 mM Tris pH 7.5 containing 1 mM EDTA and 5 mM NaCl and then diluted to 0.008 mM in the same buffer, but containing 2% DMSO. The test compounds were dissolved in 100% DMSO at a concentration of 50 mM and subsequently diluted to 0.1 mM in the same buffer as for Hsp90 with 2% DMSO. Heats of interaction were measured at 30° C. on a MSC system (Microcal), with a cell volume of 1.458 mL. 10 aliquots of 0.027 mL of 0.100 mM of each test compound were injected into 0.008 mM yeast Hsp90. Heats of dilution were determined in a separate experiment by injecting the test compound into buffer containing 2% DMSO, and the corrected data fitted using a nonlinear least square curve-fitting algorithm (Microcal Origin) with three floating variables: stoichiometry, binding constant and change in enthalpy of interaction.

CNXF 498NL = assay: Monolayer proliferation assay (modified propidium iodide assay); format: cell-based, human; settings: 4 days continuous exposure
Procedure: (§1) In vitro evaluation of compounds for anticancer activity in a panel of human tumour cell lines in a monolayer proliferation assay were carried out at the Oncotest Testing Facility, Institute for Experimental Oncology, Oncotest GmbH, Freiburg.
(§2) The Oncotest cell lines were established from human tumor xenografts as described by Roth et al., (1999). The origin of the donor xenografts was described by Fiebig et al., (1999). Other cell lines were either obtained from the NCI (DU145, MCF-7) or purchased from DSMZ, Braunschweig, Germany.
(§3) All cell lines, unless otherwise specified, were grown at 37° C. in a humidified atmosphere (95% air, 5% CO2) in a ‘ready-mix’ medium containing RPMI 1640 medium, 10% fetal calf serum, and 0.1 mg/mL gentamicin (PAA, Cölbe, Germany).
(§4) A modified propidium iodide assay was used to assess the effects of the test compound(s) on the growth of human tumour cell lines (Dengler et al., (1995)).
(§5) Briefly, cells were harvested from exponential phase cultures by trypsinization, counted and plated in 96 well flat-bottomed microtitre plates at a cell density dependent on the cell line (5-10.000 viable cells/well). After 24 h recovery to allow the cells to resume exponential growth, 0.010 mL of culture medium (6 control wells per plate) or culture medium containing the 18,21-didesoxymacbecin analogue was added to the wells. Each concentration was plated in triplicate. Compounds were applied in five concentrations (100; 10; 1; 0.1 and 0.01 μg/ml). Following 4 days of continuous exposure, cell culture medium with or without test compound was replaced by 0.2 mL of an aqueous propidium iodide (PI) solution (7 mg/L). To measure the proportion of living cells, cells may be permeabilized by freezing the plates. After thawing the plates, fluorescence was measured using the Cytofluor 4000 microplate reader (excitation 530 nm, emission 620 nm), giving a direct relationship to the total number of viable cells. Growth inhibition may be expressed as treated/control×100 (% T/C). This can be plotted as a graph of % T/C against concentration of test compound applied, which can then be used to calculate the concentration necessary to inhibit cell growth by 70% (IC70).
(§6) In vitro evaluation of the test compounds for anticancer activity in a panel of human tumour cell lines in a monolayer proliferation assay was carried out as described in the general methods using a modified propidium iodide assay.

CXF HT29 = assay: as above; format: cell-based, human; settings: 4 days continuous exposure
Procedure: as §1, §2, §3, §4, §5, §6

DU145 = assay: as above; format: cell-based, human; settings: 4 days continuous exposure
Procedure: as §1, §2, §3, §4, §5, §6

LXF 1121L = assay: as above; format: cell-based, human; settings: 4 days continuous exposure
Procedure: as §1, §2, §3, §4, §5, §6

MCF-7 = assay: as above; format: cell-based, human; settings: 4 days continuous exposure
Procedure: as §1, §2, §3, §4, §5, §6

MEXF 394NL = assay: as above; format: cell-based, human; settings: 4 days continuous exposure
Procedure: as §1, §2, §3, §4, §5, §6

[1] = test system: panel of human tumour cell lines; assay: Monolayer proliferation assay, mean IC70 across the cell line panel; format: cell-based; settings: geometric mean of all replicates across the six cell lines
Procedure: as §1, §2, §3, §4, §5, §6

Hsp90 = Hsp90 (Homo sapiens, UniProt P07900); settings: cited from earlier work

Sequence of Yeast Hsp90 (P02829 whole entry): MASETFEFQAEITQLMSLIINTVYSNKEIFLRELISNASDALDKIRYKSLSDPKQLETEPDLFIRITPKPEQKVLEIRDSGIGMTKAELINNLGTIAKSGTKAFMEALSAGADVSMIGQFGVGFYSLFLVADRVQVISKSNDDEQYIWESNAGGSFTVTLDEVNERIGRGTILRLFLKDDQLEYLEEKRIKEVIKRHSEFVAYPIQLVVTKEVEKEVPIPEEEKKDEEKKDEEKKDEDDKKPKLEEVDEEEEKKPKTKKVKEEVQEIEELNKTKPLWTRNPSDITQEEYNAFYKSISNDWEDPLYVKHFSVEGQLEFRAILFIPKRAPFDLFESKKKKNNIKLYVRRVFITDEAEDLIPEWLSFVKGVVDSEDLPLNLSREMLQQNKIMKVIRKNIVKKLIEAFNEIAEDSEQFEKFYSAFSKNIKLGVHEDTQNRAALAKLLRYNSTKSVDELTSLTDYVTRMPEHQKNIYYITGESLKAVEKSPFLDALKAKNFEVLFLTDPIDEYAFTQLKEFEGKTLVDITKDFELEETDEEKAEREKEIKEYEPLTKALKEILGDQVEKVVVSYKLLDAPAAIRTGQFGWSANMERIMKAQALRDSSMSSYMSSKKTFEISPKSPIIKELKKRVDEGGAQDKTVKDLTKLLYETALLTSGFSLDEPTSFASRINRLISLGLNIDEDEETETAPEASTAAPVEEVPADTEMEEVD

| Structure (SMILES) | Kd (Yeast Hsp90) [nM] | Test/Control (%) at drug concentration (CNXF 498NL; 0.01 μg/mL) [%] | Test/Control (%) at drug concentration (CNXF 498NL; 0.1 μg/mL) [%] | Test/Control (%) at drug concentration (CNXF 498NL; 1 μg/mL) [%] | Test/Control (%) at drug concentration (CNXF 498NL; 10 μg/mL) [%] | Test/Control (%) at drug concentration (CNXF 498NL; 100 μg/mL) [%] | Test/Control (%) at drug concentration (CXF HT29; CXF HT29, 0.01 μg/mL) [%] | Test/Control (%) at drug concentration (CXF HT29; CXF HT29, 0.1 μg/mL) [%] | Test/Control (%) at drug concentration (CXF HT29; CXF HT29, 1 μg/mL) [%] | Test/Control (%) at drug concentration (CXF HT29; CXF HT29, 10 μg/mL) [%] | Test/Control (%) at drug concentration (CXF HT29; CXF HT29, 100 μg/mL) [%] | Test/Control (%) at drug concentration (DU145; DU145, 0.01 μg/mL) [%] | Test/Control (%) at drug concentration (DU145; DU145, 0.1 μg/mL) [%] | Test/Control (%) at drug concentration (DU145; DU145, 1 μg/mL) [%] | Test/Control (%) at drug concentration (DU145; DU145, 10 μg/mL) [%] | Test/Control (%) at drug concentration (DU145; DU145, 100 μg/mL) [%] | Test/Control (%) at drug concentration (LXF 1121L; 0.01 μg/mL) [%] | Test/Control (%) at drug concentration (LXF 1121L; 0.1 μg/mL) [%] | Test/Control (%) at drug concentration (LXF 1121L; 1 μg/mL) [%] | average IC70 value across the cell-line panel [1] [µg/mL] | further results |
| --- | --- | --- | --- | --- | --- | --- | --- | --- | --- | --- | --- | --- | --- | --- | --- | --- | --- | --- | --- | --- | --- |
| CO[C@H]1C[C@H](C)Cc2cccc(c2)NC(=O)/C(C)=C/CC[C@H](C)[C@@H](OC(N)=O)/C(C)=C/[C@H](C)[C@H]1O [Compound 16, 4,5-dihydro-11-O-desmethyl-15-desmethoxy-18,21-didesoxymacbecin] | 20 | 100 | 19 | 8 | 8 | 6 | 106 | 52 | 8 | 7 | 6 | 96 | 47 | 8 | 8 | 8 | 106 | 48 | 10 | 0.193 | Test/Control (%) at drug concentration (LXF 1121L; 10 μg/mL): 7%; Test/Control (%) at drug concentration (LXF 1121L; 100 μg/mL): 5%; Test/Control (%) at drug concentration (MCF-7; MCF-7, 0.01 μg/mL): 83%; Test/Control (%) at drug concentration (MCF-7; MCF-7, 0.1 μg/mL): 21%; Test/Control (%) at drug concentration (MCF-7; MCF-7, 1 μg/mL): 10%; Test/Control (%) at drug concentration (MCF-7; MCF-7, 10 μg/mL): 11%; Test/Control (%) at drug concentration (MCF-7; MCF-7, 100 μg/mL): 10%; Test/Control (%) at drug concentration (MEXF 394NL; 0.01 μg/mL): 100%; Test/Control (%) at drug concentration (MEXF 394NL; 0.1 μg/mL): 64%; Test/Control (%) at drug concentration (MEXF 394NL; 1 μg/mL): 7%; Test/Control (%) at drug concentration (MEXF 394NL; 10 μg/mL): 5%; Test/Control (%) at drug concentration (MEXF 394NL; 100 μg/mL): 3% |
| CO[C@H]1C[C@H](C)Cc2cc(F)cc(c2)NC(=O)/C(C)=C/CC[C@H](C)[C@@H](OC(N)=O)/C(C)=C/[C@H](C)[C@H]1O [Compound 18, 4,5-dihydro-11-O-desmethyl-15-desmethoxy-18-fluoro-18,21-didesoxymacbecin] | 23.5 | 64 | 9 | 9 | 11 | 9 | 98 | 14 | 11 | 13 | 11 | 66 | 9 | 8 | 9 | 6 | 94 | 43 | 13 | 0.077 | Test/Control (%) at drug concentration (LXF 1121L; 10 μg/mL): 13%; Test/Control (%) at drug concentration (LXF 1121L; 100 μg/mL): 12%; Test/Control (%) at drug concentration (MCF-7; MCF-7, 0.01 μg/mL): 77%; Test/Control (%) at drug concentration (MCF-7; MCF-7, 0.1 μg/mL): 27%; Test/Control (%) at drug concentration (MCF-7; MCF-7, 1 μg/mL): 12%; Test/Control (%) at drug concentration (MCF-7; MCF-7, 10 μg/mL): 12%; Test/Control (%) at drug concentration (MCF-7; MCF-7, 100 μg/mL): 8%; Test/Control (%) at drug concentration (MEXF 394NL; 0.01 μg/mL): 91%; Test/Control (%) at drug concentration (MEXF 394NL; 0.1 μg/mL): 24%; Test/Control (%) at drug concentration (MEXF 394NL; 1 μg/mL): 7%; Test/Control (%) at drug concentration (MEXF 394NL; 10 μg/mL): 5%; Test/Control (%) at drug concentration (MEXF 394NL; 100 μg/mL): 4% |
| CO[C@H]1C[C@H](C)Cc2cc(O)cc(c2)NC(=O)/C=C/CC[C@H](OC)[C@@H](OC(N)=O)/C(C)=C/[C@H](C)[C@H]1O [KOSN1559] |  |  |  |  |  |  |  |  |  |  |  |  |  |  |  |  |  |  |  |  | binding affinity to Hsp90 relative to 17-AAG (Hsp90; greater binding affinity than 17-AAG): 8 fold; binding affinity to Hsp90 relative to geldanamycin (Hsp90; greater binding affinity than geldanamycin): 4 fold |
| CO[C@H]1[C@@H](OC)C[C@H](C)[C@@H](OC)C2=CC(=O)C=C(NC(=O)/C(C)=C/C=C\[C@H](C)[C@@H](OC(N)=O)/C(C)=C/[C@@H]1C)C2=O [macbecin] |  |  |  |  |  |  |  |  |  |  |  |  |  |  |  |  |  |  |  | 0.21 |  |
| CO[C@H]1C[C@H](C)Cc2cc(ccc2F)NC(=O)/C(C)=C/CC[C@H](C)[C@@H](OC(N)=O)/C(C)=C/[C@H](C)[C@H]1O [Compound 17, 4,5-dihydro-11-O-desmethyl-15-desmethoxy-17-fluoro-18,21-didesoxymacbecin] | 19 | 97 | 22 | 7 | 8 | 7 | 102 | 49 | 7 | 7 | 8 | 93 | 7 | 8 | 10 | 9 | 100 | 41 | 10 | 0.106 | Test/Control (%) at drug concentration (LXF 1121L; 10 μg/mL): 11%; Test/Control (%) at drug concentration (LXF 1121L; 100 μg/mL): 11%; Test/Control (%) at drug concentration (MCF-7; MCF-7, 0.01 μg/mL): 86%; Test/Control (%) at drug concentration (MCF-7; MCF-7, 0.1 μg/mL): 20%; Test/Control (%) at drug concentration (MCF-7; MCF-7, 1 μg/mL): 10%; Test/Control (%) at drug concentration (MCF-7; MCF-7, 10 μg/mL): 10%; Test/Control (%) at drug concentration (MCF-7; MCF-7, 100 μg/mL): 8%; Test/Control (%) at drug concentration (MEXF 394NL; 0.01 μg/mL): 101%; Test/Control (%) at drug concentration (MEXF 394NL; 0.1 μg/mL): 21%; Test/Control (%) at drug concentration (MEXF 394NL; 1 μg/mL): 4%; Test/Control (%) at drug concentration (MEXF 394NL; 10 μg/mL): 3%; Test/Control (%) at drug concentration (MEXF 394NL; 100 μg/mL): 3% |
